Reference: ChEMBL document CHEMBL1201862, “PubChem BioAssay data set” (2004)
Calls of active or inactive are those of the source.

What was measured:
[1] = NIH-3T3 fibroblast cytotoxicity, dose response, cytotoxicity control, cell-based, fluorescence, Alamar Blue, secondary assay (AID 2327); type: functional;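 note: NIH-3T3 mouse fibroblasts cultured with fluconazole at 8 µg/mL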
[2] = Counterscreen for AddAB inhibitors: absorbance-based bacterial cell-based high throughput dose response assay for inhibitors of bacterial viability. [Related pubchem assays (depositor defined):AID435030, AID449728, AID449731, AID488942, AID488955, AID488956]; type: functional
[3] = fluconazole-exposed Candida albicans growth modulators – fluorescence, retest, confirmation (AID 2467); type: functional, cell-based
[4] = biological target: Heat shock protein HSP 90-alpha (Homo sapiens, UniProt P07900); type: functional, organism-based
[5] = biological target: Ribosomal protein S6 kinase alpha-3 (Homo sapiens, UniProt P51812); type: functional;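 note: measured within a kinome-wide profiling panel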
[6] = biological target: G protein-coupled receptor kinase 5 (Homo sapiens, UniProt P34947); experiment: Navigating the Kinome. Panel member name: GPRK5; type: functional
[7] = biological target: Serine/threonine-protein kinase Chk2 (Homo sapiens, UniProt O96017); type: functional;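 note: CHEK2 entry within a kinome-wide screening panel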
[8] = biological target: Casein kinase II subunit alpha (Homo sapiens, UniProt P68400); type: functional
[9] = biological target: Tyrosine-protein kinase Fer (Homo sapiens, UniProt P16591); type: functional;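 note: FER tested as one member of a kinome panel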
[10] = biological target: Serine/threonine-protein kinase PAK 1 (Homo sapiens, UniProt Q13153); type: functional
[11] = biological target: Serine/threonine-protein kinase Nek4 (Homo sapiens, UniProt P51957); type: functional
[12] = biological target: Cyclin-dependent kinase 1 (Homo sapiens, UniProt P06493); type: functional;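 note: Kinome-wide panel profiling, with the target listed as panel member CDC2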
[13] = biological target: Protein kinase C iota type (Homo sapiens, UniProt P41743); type: functional;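 note: measured within a kinome-wide kinase panel, PRKCI as panel member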
[14] = biological target: Proto-oncogene tyrosine-protein kinase Src (Homo sapiens, UniProt P12931); type: functional;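 note: SRC entry within a kinome-wide kinase profiling panel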
[15] = biological target: Serine/threonine-protein kinase MRCK alpha (Homo sapiens, UniProt Q5VT25); type: functional
[16] = biological target: MAP kinase-activated protein kinase 5 (Homo sapiens, UniProt Q8IW41); type: functional;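 note: measured as one member of a kinome panel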
[17] = biological target: Protein kinase C gamma type (Homo sapiens, UniProt P05129); type: functional
[18] = biological target: Interleukin-1 receptor-associated kinase 1 (Homo sapiens, UniProt P51617); type: functional;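 note: IRAK1 tested as one member of a kinome panel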
[19] = biological target: Serine/threonine-protein kinase pim-3 (Homo sapiens, UniProt Q86V86); type: functional;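 note: value obtained as one member of a broad kinase panel profiling effort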

Sequence of Serine/threonine-protein kinase PAK 1 (Q13153 whole entry): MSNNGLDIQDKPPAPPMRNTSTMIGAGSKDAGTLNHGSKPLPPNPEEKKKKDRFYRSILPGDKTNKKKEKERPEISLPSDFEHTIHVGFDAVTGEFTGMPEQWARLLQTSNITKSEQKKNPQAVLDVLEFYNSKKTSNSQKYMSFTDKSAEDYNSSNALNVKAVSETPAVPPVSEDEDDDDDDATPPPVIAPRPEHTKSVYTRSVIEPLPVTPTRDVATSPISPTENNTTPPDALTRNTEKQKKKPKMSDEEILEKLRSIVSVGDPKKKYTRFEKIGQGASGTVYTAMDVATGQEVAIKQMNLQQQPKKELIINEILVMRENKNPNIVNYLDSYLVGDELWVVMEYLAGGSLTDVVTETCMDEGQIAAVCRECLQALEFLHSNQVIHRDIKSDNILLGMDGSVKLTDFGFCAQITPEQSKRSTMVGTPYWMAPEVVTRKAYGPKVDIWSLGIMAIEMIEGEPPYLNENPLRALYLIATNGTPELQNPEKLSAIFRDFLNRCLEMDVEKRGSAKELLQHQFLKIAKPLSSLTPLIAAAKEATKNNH
Sequence of Serine/threonine-protein kinase Chk2 (O96017 whole entry): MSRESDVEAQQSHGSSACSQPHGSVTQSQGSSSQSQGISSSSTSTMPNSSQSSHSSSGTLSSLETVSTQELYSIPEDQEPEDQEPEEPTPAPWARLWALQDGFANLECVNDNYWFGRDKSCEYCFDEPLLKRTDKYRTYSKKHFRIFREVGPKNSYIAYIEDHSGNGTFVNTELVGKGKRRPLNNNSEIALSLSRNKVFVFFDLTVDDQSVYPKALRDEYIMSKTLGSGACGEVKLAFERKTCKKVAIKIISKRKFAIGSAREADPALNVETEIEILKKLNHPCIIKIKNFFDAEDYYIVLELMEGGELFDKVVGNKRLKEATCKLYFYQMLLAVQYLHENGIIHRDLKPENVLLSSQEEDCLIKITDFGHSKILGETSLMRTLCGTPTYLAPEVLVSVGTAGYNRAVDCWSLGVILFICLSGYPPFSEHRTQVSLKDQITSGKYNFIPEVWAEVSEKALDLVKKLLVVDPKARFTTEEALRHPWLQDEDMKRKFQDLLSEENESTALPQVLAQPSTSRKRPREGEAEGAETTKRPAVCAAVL
Sequence of G protein-coupled receptor kinase 5 (P34947 whole entry): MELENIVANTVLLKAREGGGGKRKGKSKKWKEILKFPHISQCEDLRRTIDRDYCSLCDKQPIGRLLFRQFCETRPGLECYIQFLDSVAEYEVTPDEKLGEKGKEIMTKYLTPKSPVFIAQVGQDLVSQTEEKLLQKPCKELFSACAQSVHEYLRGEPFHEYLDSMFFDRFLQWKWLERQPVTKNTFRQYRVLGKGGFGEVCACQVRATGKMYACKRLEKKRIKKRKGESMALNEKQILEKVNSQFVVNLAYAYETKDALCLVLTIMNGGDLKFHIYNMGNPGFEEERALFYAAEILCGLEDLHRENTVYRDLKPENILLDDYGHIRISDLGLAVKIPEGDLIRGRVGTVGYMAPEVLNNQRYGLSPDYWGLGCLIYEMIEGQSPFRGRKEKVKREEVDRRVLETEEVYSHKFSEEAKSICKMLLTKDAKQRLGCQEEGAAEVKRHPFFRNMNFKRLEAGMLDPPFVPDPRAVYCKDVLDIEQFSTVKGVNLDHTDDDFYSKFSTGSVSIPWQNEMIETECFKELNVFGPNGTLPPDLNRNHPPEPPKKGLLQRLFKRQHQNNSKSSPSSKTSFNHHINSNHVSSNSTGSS
Sequence of Tyrosine-protein kinase Fer (P16591 whole entry): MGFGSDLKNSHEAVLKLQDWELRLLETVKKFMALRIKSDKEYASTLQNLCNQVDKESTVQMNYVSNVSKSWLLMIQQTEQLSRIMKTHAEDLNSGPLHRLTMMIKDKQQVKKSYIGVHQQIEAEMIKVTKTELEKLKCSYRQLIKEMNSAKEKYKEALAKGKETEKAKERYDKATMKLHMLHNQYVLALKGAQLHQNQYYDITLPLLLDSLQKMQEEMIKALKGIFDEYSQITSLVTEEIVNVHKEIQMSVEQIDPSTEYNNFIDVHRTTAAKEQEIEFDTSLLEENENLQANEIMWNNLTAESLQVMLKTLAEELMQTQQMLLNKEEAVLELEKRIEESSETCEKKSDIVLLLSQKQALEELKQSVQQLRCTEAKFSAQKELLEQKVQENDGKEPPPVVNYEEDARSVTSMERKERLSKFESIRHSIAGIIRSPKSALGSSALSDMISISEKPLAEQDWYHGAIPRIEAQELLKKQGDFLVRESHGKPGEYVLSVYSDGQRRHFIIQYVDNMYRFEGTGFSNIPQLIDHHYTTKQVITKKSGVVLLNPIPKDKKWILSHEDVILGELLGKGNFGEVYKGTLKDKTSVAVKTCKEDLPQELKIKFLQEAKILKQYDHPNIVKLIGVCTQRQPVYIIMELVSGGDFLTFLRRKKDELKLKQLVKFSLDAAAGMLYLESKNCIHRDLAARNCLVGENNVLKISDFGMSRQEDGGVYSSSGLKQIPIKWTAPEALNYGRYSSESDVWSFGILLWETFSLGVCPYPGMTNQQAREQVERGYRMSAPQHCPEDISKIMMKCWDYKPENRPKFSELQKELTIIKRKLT
Sequence of Serine/threonine-protein kinase Nek4 (P51957 whole entry): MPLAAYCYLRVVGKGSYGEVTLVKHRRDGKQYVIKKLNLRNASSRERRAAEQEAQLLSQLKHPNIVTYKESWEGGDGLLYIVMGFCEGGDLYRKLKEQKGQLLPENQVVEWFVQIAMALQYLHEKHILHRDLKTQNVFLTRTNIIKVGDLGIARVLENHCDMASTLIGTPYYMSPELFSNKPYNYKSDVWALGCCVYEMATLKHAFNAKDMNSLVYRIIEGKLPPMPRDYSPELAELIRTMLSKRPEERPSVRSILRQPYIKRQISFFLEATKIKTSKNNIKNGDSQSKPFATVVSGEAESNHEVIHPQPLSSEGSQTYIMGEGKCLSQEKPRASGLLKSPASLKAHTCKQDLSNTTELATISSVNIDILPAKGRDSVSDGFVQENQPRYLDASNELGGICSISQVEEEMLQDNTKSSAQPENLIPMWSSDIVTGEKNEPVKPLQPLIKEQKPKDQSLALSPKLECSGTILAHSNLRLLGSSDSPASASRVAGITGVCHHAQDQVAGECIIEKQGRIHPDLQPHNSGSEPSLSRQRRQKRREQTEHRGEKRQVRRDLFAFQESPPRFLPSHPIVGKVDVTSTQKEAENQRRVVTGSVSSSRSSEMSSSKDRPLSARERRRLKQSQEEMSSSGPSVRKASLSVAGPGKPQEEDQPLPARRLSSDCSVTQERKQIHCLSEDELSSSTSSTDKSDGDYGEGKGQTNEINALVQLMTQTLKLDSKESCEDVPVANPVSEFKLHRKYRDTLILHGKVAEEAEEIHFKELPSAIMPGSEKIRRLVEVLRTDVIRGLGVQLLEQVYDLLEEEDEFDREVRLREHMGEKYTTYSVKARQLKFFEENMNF
Sequence of Serine/threonine-protein kinase MRCK alpha (Q5VT25 whole entry): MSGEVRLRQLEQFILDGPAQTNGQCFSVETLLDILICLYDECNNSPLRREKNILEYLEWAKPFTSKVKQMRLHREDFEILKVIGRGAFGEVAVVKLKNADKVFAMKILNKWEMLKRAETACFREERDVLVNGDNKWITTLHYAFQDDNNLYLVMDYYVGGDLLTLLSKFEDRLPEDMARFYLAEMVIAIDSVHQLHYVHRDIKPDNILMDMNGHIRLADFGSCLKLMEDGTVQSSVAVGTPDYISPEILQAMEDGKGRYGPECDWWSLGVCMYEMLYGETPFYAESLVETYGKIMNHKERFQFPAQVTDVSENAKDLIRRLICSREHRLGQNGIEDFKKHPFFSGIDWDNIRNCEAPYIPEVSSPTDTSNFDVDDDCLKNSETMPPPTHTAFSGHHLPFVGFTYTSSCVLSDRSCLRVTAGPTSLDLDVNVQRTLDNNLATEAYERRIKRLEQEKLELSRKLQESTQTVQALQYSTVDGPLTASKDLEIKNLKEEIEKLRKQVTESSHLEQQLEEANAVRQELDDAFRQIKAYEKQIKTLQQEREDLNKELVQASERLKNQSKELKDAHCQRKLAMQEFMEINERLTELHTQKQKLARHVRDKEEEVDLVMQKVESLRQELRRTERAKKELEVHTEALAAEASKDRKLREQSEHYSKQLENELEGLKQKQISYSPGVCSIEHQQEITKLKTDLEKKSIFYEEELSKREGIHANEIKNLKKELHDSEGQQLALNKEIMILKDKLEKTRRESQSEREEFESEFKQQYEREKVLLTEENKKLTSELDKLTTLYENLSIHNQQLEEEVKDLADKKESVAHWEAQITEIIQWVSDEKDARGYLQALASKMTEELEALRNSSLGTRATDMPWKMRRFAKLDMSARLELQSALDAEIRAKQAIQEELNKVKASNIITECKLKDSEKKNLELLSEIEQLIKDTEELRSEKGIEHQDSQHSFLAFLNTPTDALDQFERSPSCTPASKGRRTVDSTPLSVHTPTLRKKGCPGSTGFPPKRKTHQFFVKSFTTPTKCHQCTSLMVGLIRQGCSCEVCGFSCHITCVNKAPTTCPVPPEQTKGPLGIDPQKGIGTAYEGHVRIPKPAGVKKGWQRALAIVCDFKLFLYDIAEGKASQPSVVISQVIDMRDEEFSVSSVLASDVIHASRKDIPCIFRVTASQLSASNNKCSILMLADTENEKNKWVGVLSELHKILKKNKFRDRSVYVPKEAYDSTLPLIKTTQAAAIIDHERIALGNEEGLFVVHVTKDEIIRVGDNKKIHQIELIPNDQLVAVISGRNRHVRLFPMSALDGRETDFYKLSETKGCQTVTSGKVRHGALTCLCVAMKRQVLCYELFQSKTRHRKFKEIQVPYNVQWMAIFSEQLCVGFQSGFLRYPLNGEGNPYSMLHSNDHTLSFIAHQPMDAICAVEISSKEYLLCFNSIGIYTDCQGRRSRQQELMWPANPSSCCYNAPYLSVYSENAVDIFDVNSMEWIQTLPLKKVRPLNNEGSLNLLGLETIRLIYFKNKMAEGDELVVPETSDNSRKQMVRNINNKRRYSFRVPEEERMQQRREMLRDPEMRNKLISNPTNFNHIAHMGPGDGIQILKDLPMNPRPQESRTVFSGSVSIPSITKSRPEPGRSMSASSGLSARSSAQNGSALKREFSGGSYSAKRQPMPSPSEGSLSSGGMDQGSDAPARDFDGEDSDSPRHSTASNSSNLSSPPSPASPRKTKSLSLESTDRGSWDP

| SMILES | EC50 [1] | IC50 [2] | EC50 [3] | AC50 [4] | Ki [5] | Ki [6] | Ki [7] | Ki [8] | Ki [9] | Ki [10] | Ki [11] | Ki [12] | Ki [13] | Ki [14] | Ki [15] | Ki [16] | Ki [17] | Ki [18] | Ki [19] |
| --- | --- | --- | --- | --- | --- | --- | --- | --- | --- | --- | --- | --- | --- | --- | --- | --- | --- | --- | --- |
| Cc1cc(NC(c2ccc(Cl)cc2)c2ccc3cccnc3c2O)no1 (centres undefined) | 22 µM (active) | > 119 µM (inactive) | 0.741 µM (active) | 3.87 µM (active) |  |  |  |  |  |  |  |  |  |  |  |  |  |  |  |
| CS(=O)(=O)N(Cc1ccc2[nH]c(=O)c3cccn3c2c1)C1CC1 |  |  |  |  | > 2 µM (inactive) | > 3.98 µM (inactive) | > 1.58 µM (inactive) | 0.0158 µM (active) | > 1.58 µM (inactive) | 3.16 µM (active) | 0.251 µM (active) | > 7.94 µM (inactive) | > 5.01 µM (inactive) | 1.26 µM (active) | 2 µM (active) | 0.01 µM (active) | 1.26 µM (active) | 0.158 µM (active) | 2.51 µM (active) |
